Data: US20130060013A1, “Compounds useful for treating neurodegenerative disorders” (SATORI PHARMACEUTICALS, INC., priority 2011, published 2013)

What was measured:
Format in all cases: cell-based
Conditions in all cases: Homo sapiens, compound 5 hours at 37° C., 1% DMSO, percent vehicle fit to 4 parameter curve
[1] = system: Aβ-38; test: Aβ-38 level in conditioned media of 2B7 cells (MSD 3-PLEX ELISA)
Experimental: (§1) Assays were conducted to determine the ability of a Compound of Formula I to modulate […], and Aβ-38.
(§2) Plates with capture antibodies were blocked for 1-2 hours at room temperature with 150 μL of the manufactures blocking reagent.
(§3) Cultured 2B7 cells in 96 well plate with 250 uL of media per well until confluent;
(§4) Prepared serial dilutions of compounds in DMSO at 100× the final desired concentration;
(§5) Washed wells with 2B7 cells 1× with 250 uL of media;
(§6) Diluted DMSO stocks 1:100 into media:
(§7) Added 250 μL of media containing compounds (1% DMSO) to wells with 2B7 cells for 5 hours at 37° C.
(§8) Diluted conditioned media: 1 part media with 1% DMSO and 1 part blocking buffer;
(§9) 150 μL of the 250 μL of conditioned media were used.
(§10) Standard Curve Sample Prep:
(§11) Prepared per manufacturer's protocol (see above)
(§12) Seven point standard curve samples were prepared that contained Aβ-42, Aβ-40, and Aβ-38. The highest concentration of Aβ-42 and Aβ-38 was 3,000 pg/mL and the highest concentration of Aβ-40 was 10,000 pg/mL. Subsequent serial dilutions were 1:3 and the final composition of each sample was 1 part blocking buffer and 1 part cell medium containing 1% DMSO.
(§13) Overnight Sample Incubation:
(§14) Blocked plates are washed 5× with MSD wash buffer with a plate washer
(§15) 25 uL of detection antibody and blocker G reagent in MSD blocking solution is added
(§16) 25 uL of samples (1 part conditioned media containing 1% DMSO and 1 part MSD blocking buffer) are then added.
(§17) plates are incubated overnight at 4 degrees C. or 2 hours at room temp
(§18) Wash wells 5× with MSD wash buffer
(§19) Added 150 μL 2×MSD read buffer
(§20) A-Beta peptide levels for each peptide are calculated from the standard curve using the MSD software provided with the MSD 2400 Imager. Percent vehicle values for each compound dosage were then calculated and fit to a 4 parameter curve generating IC50 values.

[2] = system: Aβ-40; test: Aβ-40 level in conditioned media of 2B7 cells (MSD 3-PLEX ELISA)
Experimental: as §1
Human (6E10) Ab 3-PLEX elisa kits were purchased from Meso Scale Discovery Labs, 9328 Gaither Road, Gaithersburg, Md. 20877 (Catalog Number K15148E-3). Plates with capture antibodies were blocked for 1-2 hours at room temperature with 150 μL of the manufactures blocking reagent.
as §3, §4, §5, §6, §7, §8, §9, §10, §11, §12, §13, §14, §15, §16, §17, §18, §19, §20

[3] = system: Aβ-42; test: Aβ-42 level in conditioned media of 2B7 cells (MSD 3-PLEX ELISA)
Experimental: as §1, §2, §3, §4, §5, §6, §7, §8, §9, §10, §11, §12, §13, §14, §15, §16, §17, §18, §19, §20

CCO[C@@H]([C@H]1C[C@@H](C)[C@H]2[C@H](O1)[C@H](O)[C@@]1(C)[C@@H]3CC[C@H]4C(C)(C)C(O[C@H]5CN(CCNC(=O)CCOCCOCCNC(=O)CCCCC6SC[C@@H]7NC(=O)N[C@H]67)CCO5)CC[C@@]45CC35CC[C@]21C)C(C)(C)O (stereo partly drawn)
IC50 [1]: 1000 to 10000 nM
IC50 [2]: > 10000 nM
IC50 [3]: 1000 to 10000 nM

CCO[C@@H](C1C[C@@H](C)[C@H]2C(O1)[C@H](O)[C@@]1(C)C3CC[C@H]4C(C)(C)[C@@H](O[C@H]5CN(c6ccccn6)CCO5)CCC45C[C@@]35CC[C@]21C)C(C)(C)O (stereo partly drawn)
IC50 [1]: 1000 to 10000 nM
IC50 [2]: 1000 to 10000 nM
IC50 [3]: 1000 to 10000 nM

CCO[C@@H]([C@H]1C[C@@H](C)[C@H]2[C@H](O1)[C@H](O)[C@@]1(C)[C@@H]3CC[C@H]4C(C)(C)C(O[C@H]5CN(CCCNCCCOCCOCCOCCCNC(=O)CCCCC6SC[C@@H]7NC(=O)N[C@H]67)CCO5)CC[C@@]45CC35CC[C@]21C)C(C)(C)O (stereo partly drawn)
IC50 [1]: < 1000 nM
IC50 [2]: 1000 to 10000 nM
IC50 [3]: < 1000 nM

COCCN1CCO[C@@H](O[C@H]2CCC34C[C@]35CC[C@]3(C)[C@@H]6[C@H](O[C@@H]([C@H](OC)C(C)(C)OC)C[C@H]6C)[C@H](O)[C@@]3(C)[C@@H]5CC[C@H]4C2(C)C)C1 (stereo partly drawn)
IC50 [1]: 1000 to 10000 nM
IC50 [2]: > 10000 nM
IC50 [3]: < 1000 nM

CCO[C@@H]([C@H]1C[C@@H](C)[C@H]2[C@H](O1)[C@H](O)[C@@]1(C)[C@@H]3CC[C@H]4C(C)(C)[C@@H](O[C@H]5CN(C6CN(C(C)C)C6)CCO5)CCC45C[C@@]35CC[C@]21C)C(C)(C)OC (stereo partly drawn)
IC50 [1]: < 1000 nM
IC50 [2]: 1000 to 10000 nM
IC50 [3]: < 1000 nM

CCO[C@@H]([C@H]1C[C@@H](C)[C@H]2[C@H](O1)[C@H](O)[C@]1(C)[C@@H]3CC[C@H]4C(C)(C)[C@@H](O[C@H]5CN(C(=O)C6CNC6)CCO5)CC[C@@]45C[C@@]35CC[C@@]21C)C(C)(C)O
IC50 [1]: < 1000 nM
IC50 [2]: 1000 to 10000 nM
IC50 [3]: < 1000 nM

CCO[C@@H](C1C[C@@H](C)[C@H]2C(O1)[C@H](O)[C@@]1(C)C3CC[C@H]4C(C)(C)[C@@H](O[C@H]5CN(c6cnccn6)CCO5)CCC45C[C@@]35CC[C@]21C)C(C)(C)O (stereo partly drawn)
IC50 [1]: < 1000 nM
IC50 [2]: > 10000 nM
IC50 [3]: < 1000 nM

CCO[C@@H]([C@H]1C[C@@H](C)[C@H]2[C@H](O1)[C@H](O)[C@@]1(C)[C@@H]3CC[C@H]4C(C)(C)[C@@H](O[C@H]5CN([C@@H](C)CO)CCO5)CCC45C[C@@]35CC[C@]21C)C(C)(C)O (stereo partly drawn)
IC50 [1]: < 1000 nM
IC50 [2]: 1000 to 10000 nM
IC50 [3]: < 1000 nM

CCO[C@@H]([C@H]1C[C@@H](C)[C@H]2[C@H](O1)[C@H](O)[C@@]1(C)[C@@H]3CC[C@H]4C(C)(C)[C@@H](OC(=O)[C@H]5CCCN5C)CCC45C[C@@]35CC[C@]21C)C(C)(C)O (stereo partly drawn)
IC50 [1]: < 1000 nM
IC50 [2]: 1000 to 10000 nM
IC50 [3]: < 1000 nM

CCO[C@@H]([C@H]1C[C@@H](C)[C@H]2[C@H](O1)[C@H](O)[C@@]1(C)[C@@H]3CC[C@H]4C(C)(C)C(O[C@H]5CN(CCNCCCOCCOCCOCCCNC(=O)CCCCC6SC[C@@H]7NC(=O)N[C@H]67)CCO5)CC[C@@]45CC35CC[C@]21C)C(C)(C)O (stereo partly drawn)
IC50 [1]: < 1000 nM
IC50 [2]: 1000 to 10000 nM
IC50 [3]: < 1000 nM

CO[C@@H]([C@H]1C[C@@H](C)[C@H]2[C@H](O1)[C@H](O)[C@@]1(C)[C@@H]3CC[C@H]4C(C)(C)[C@@H](O[C@H]5CN(C6CNC6)CCO5)CCC45C[C@@]35CC[C@]21C)C(C)(C)O (stereo partly drawn)
IC50 [1]: < 1000 nM
IC50 [2]: 1000 to 10000 nM
IC50 [3]: < 1000 nM

CCO[C@@H]([C@H]1C[C@@H](C)[C@H]2[C@H](O1)[C@H](O)[C@@]1(C)[C@@H]3CC[C@H]4C(C)(C)[C@@H](O[C@H]5CN([C@H](C)COC)CCO5)CCC45C[C@@]35CC[C@]21C)C(C)(C)O (stereo partly drawn)
IC50 [1]: 1000 to 10000 nM
IC50 [2]: > 10000 nM
IC50 [3]: < 1000 nM

CCO[C@@H]([C@H]1C[C@@H](C)[C@H]2[C@H](O1)[C@H](O)[C@@]1(C)[C@@H]3CC[C@H]4C(C)(C)[C@@H](OC(=O)[C@@H]5C[C@@H](O)CN5C)CCC45C[C@@]35CC[C@]21C)C(C)(C)O (stereo partly drawn)
IC50 [1]: < 1000 nM
IC50 [2]: 1000 to 10000 nM
IC50 [3]: < 1000 nM

CCO[C@@H]([C@H]1C[C@@H](C)[C@H]2[C@H](O1)[C@H](O)[C@@]1(C)[C@@H]3CC[C@H]4C(C)(C)[C@@H](O[C@H]5CN(C(C)(C)CN6CCOCC6)CCO5)CCC45C[C@@]35CC[C@]21C)C(C)(C)O (stereo partly drawn)
IC50 [1]: < 1000 nM
IC50 [2]: 1000 to 10000 nM
IC50 [3]: < 1000 nM

CCO[C@@H]([C@H]1C[C@@H](C)[C@H]2[C@H](O1)[C@H](O)[C@@]1(C)[C@@H]3CC[C@H]4C(C)(C)[C@@H](O[C@H]5CN(CCF)CCO5)CCC45C[C@@]35CC[C@]21C)C(C)(C)O (stereo partly drawn)
IC50 [1]: < 1000 nM
IC50 [2]: 1000 to 10000 nM
IC50 [3]: < 1000 nM

CO[C@@H](C1C[C@@H](C)[C@H]2C(O1)[C@H](O)[C@@]1(C)C3CC[C@H]4C(C)(C)[C@@H](O[C@H]5CNCCO5)CC[C@@]45CC35CC[C@]21C)C(C)(C)O (stereo partly drawn)
IC50 [1]: < 1000 nM
IC50 [2]: 1000 to 10000 nM
IC50 [3]: < 1000 nM

CCO[C@@H]([C@H]1C[C@@H](C)[C@H]2[C@H](O1)[C@H](O)[C@@]1(C)[C@@H]3CC[C@H]4C(C)(C)[C@@H](OC(=O)c5cccnc5)CCC45C[C@@]35CC[C@]21C)C(C)(C)O (stereo partly drawn)
IC50 [1]: < 1000 nM
IC50 [2]: > 10000 nM
IC50 [3]: < 1000 nM

CCO[C@@H]([C@H]1C[C@@H](C)[C@H]2[C@H](O1)[C@H](O)[C@@]1(C)[C@@H]3CC[C@H]4C(C)(C)[C@@H](O[C@H]5CN(C(C)(C)COC)CCO5)CCC45C[C@@]35CC[C@]21C)C(C)(C)O (stereo partly drawn)
IC50 [1]: < 1000 nM
IC50 [2]: > 10000 nM
IC50 [3]: < 1000 nM

CCO[C@@H]([C@H]1C[C@@H](C)[C@H]2[C@H](O1)[C@H](O)[C@@]1(C)[C@@H]3CC[C@H]4C(C)(C)[C@@H](O[C@H]5CN(CC6CN(C(C)=O)C6)CCO5)CCC45C[C@@]35CC[C@]21C)C(C)(C)O (stereo partly drawn)
IC50 [1]: 1000 to 10000 nM
IC50 [2]: 1000 to 10000 nM
IC50 [3]: < 1000 nM

CCO[C@@H]([C@H]1C[C@@H](C)[C@H]2[C@H](O1)[C@H](O)[C@@]1(C)[C@@H]3CC[C@H]4C(C)(C)[C@@H](O[C@H]5CN(CCCO)CCO5)CCC45C[C@@]35CC[C@]21C)C(C)(C)O (stereo partly drawn)
IC50 [1]: 1000 to 10000 nM
IC50 [2]: 1000 to 10000 nM
IC50 [3]: < 1000 nM

CCO[C@@H]([C@H]1C[C@@H](C)[C@H]2[C@H](O1)[C@H](O)[C@@]1(C)[C@@H]3CC[C@H]4C(C)(C)[C@@H](OC(=O)[C@@H]5C[C@@H](O)CN5)CCC45C[C@@]35CC[C@]21C)C(C)(C)O (stereo partly drawn)
IC50 [1]: < 1000 nM
IC50 [2]: 1000 to 10000 nM
IC50 [3]: < 1000 nM

CCO[C@@H]([C@H]1C[C@@H](C)[C@H]2[C@H](O1)[C@H](O)[C@@]1(C)[C@@H]3CC[C@H]4C(C)(C)[C@@H](OC(=O)[C@H]5CCCN5)CCC45C[C@@]35CC[C@]21C)C(C)(C)O (stereo partly drawn)
IC50 [1]: < 1000 nM
IC50 [2]: 1000 to 10000 nM
IC50 [3]: < 1000 nM

CCO[C@@H]([C@H]1C[C@@H](C)[C@H]2[C@H](O1)[C@H](O)[C@@]1(C)[C@@H]3CC[C@H]4C(C)(C)[C@@H](OC(=O)CN5CCOCC5)CCC45C[C@@]35CC[C@]21C)C(C)(C)O (stereo partly drawn)
IC50 [1]: < 1000 nM
IC50 [2]: 1000 to 10000 nM
IC50 [3]: < 1000 nM

CCO[C@@H]([C@H]1C[C@@H](C)[C@H]2[C@H](O1)[C@H](O)[C@@]1(C)[C@@H]3CC[C@H]4C(C)(C)[C@@H](OC(=O)[C@@H]5CCCN5C)CCC45C[C@@]35CC[C@]21C)C(C)(C)O (stereo partly drawn)
IC50 [1]: < 1000 nM
IC50 [2]: 1000 to 10000 nM
IC50 [3]: < 1000 nM
